Assay results taken from patent publication US20230240288A1, “FRUIT TREE POLLINATION METHOD FOR PREVENTING AND CONTROLLING ERWINIA AMYLOVORA-CAUSED DISEASE” (ZHEJIANG UNIVERSITY, priority 2022, published 2023).
In brackets after ≈: the same amount, converted by molar mass.

Assays:
[1] = system: Erwinia amylovora; assay: Orchard pollination test (II): liquid pollination, bacteria-free pollen, orchard with moderate pear fire blight; details: artificial pollination with pollen containing the agent, moderate occurrence orchard
Protocol: 10 g of xanthan gum was dissolved in 2.5 L of continuously-boiling water and cooled to obtain a solution I; 6.5 kg of white sugar was dissolved with 10 L of hot water to obtain a solution II; 25 g of calcium nitrate and 5 g of boric acid were dissolved in 0.5 L of water to obtain a solution III; the above three solutions were poured into a large container, then added with 30 L of water, and stirred well to prepare a nutrient solution for later use. […]
4 g of the pollen was added to 4 L of a prepared nutrient solution containing the agent, stirred to make the pollen evenly dispersed to prepare a pollen suspension, which was then pollinated by spraying with a shoulder-back electric sprayer. […] A pollen suspension prepared with water instead of the agent was set as a positive control group, and the pollen suspension prepared with water instead of the agent and sprayed on disease-free trees was set as a negative control group, and 3 trees were treated by each group.2 weeks after pollination, a fruit setting rate and the number of flower rot and diseased fruit were counted to calculate an incidence.

[2] = system: Erwinia amylovora XJSZ0102; assay: Inhibition zone (filter paper) method, high-concentration screening of 52 agents; type: cell-based; details: results of filter paper method and turbidimetry; at a high concentration
[3] = system: Erwinia amylovora; assay: Orchard pollination test (I): liquid pollination, bacteria-carrying pollen, disease-free bergamot pear trees; details: artificial pollination with pollen suspension containing the agent
Protocol: 10 g of xanthan gum was dissolved in 2.5 L of continuously-boiling water and cooled to obtain a solution I; 6.5 kg of white sugar was dissolved with 10 L of hot water to obtain a solution II; 25 g of calcium nitrate and 5 g of boric acid were dissolved in 0.5 L of water to obtain a solution III; the above three solutions were poured into a large container, then added with 30 L of water, and stirred well to prepare a nutrient solution for later use.
Each agent was diluted with water to form a stock solution, and 100 mL of the stock solution was added to 9.9 L of the nutrient solution, fully stirred and mixed, such that a final concentration of the agent in the nutrient solution was shown in Table 7, and 9 groups of agent treatments were obtained in total.
4 g of the pollen was added to 4 L of a prepared nutrient solution containing the agent, stirred to make the pollen evenly dispersed to prepare a pollen suspension, which was then pollinated by spraying with a shoulder-back electric sprayer. The pollination period was at 40% blooming and at 80% blooming separately, each tree was sprayed with 1 L of the pollen suspension, and each agent treatment group was sprayed to pollinate 3 trees. […] 2 weeks after pollination, a fruit setting rate and the number of flower rot and diseased fruit were counted to calculate an incidence.

[4] = system: Erwinia amylovora XJSZ0102; assay: Toxicity of bactericides against Erwinia amylovora (growth inhibition OD600, EC50 regression)
[5] = Erwinia amylovora, XJSZ0102, 24 h, read-out: Inhibition rate (%)

Compound	incidence of pear fire blight-based flower rot and fruit rot, compared with positive control group [1]	bacteriostatic effect on Erwinia amylovora [2]	incidence of flower rot and fruit rot caused by pear fire blight, compared with positive control [3]	Inhibition rate (%) ([4]; concentration 0.100 mg/L, 24 h)	Inhibition rate (%) ([4]; concentration 0.160 mg/L, 24 h)	Inhibition rate (%) ([4]; concentration 0.256 mg/L, 24 h)	Inhibition rate (%) ([4]; concentration 0.410 mg/L, 24 h)	Inhibition rate (%) ([4]; concentration 0.655 mg/L, 24 h)	EC50 ([4]; toxic regression analysis of bacteriostasis rate, 24 h) [µg/mL]	EC50 ([4]; Erwinia amylovora, XJSZ0102, 24 h) [µg/mL]	inhibition at 0.0125 µg/mL [4, 5] [%]	inhibition at 0.0175 µg/mL [4, 5] [%]	inhibition at 0.025 µg/mL [4, 5] [%]	inhibition at 0.035 µg/mL [4, 5] [%]	inhibition at 0.05 µg/mL [4, 5] [%]
zhongshengmycin	significantly lower than that of the positive control group	desirable bacteriostatic effect	significantly lower incidence than that of the positive control	28.58	40.31	56.63	66.08	81.07	0.22	–	–	–	–	–	–
CCCSc1ccc2nc(NC(=O)OC)[nH]c2c1 [Albendazole, albendazole]	significantly lower than that of the positive control group	desirable bacteriostatic effect	significantly lower incidence than that of the positive control	–	–	–	–	–	–	0.022 (≈ 0.0829 µM)	15.2	33	54.6	82	95.4
